The results in this text go back to paper PMC9887005, “Regioselective protein oxidative cleavage enabled by enzyme-like recognition of an inorganic metal oxo cluster ligand” (Nature Communications, 2023).

This assay addresses T1, hen egg white lysozyme (HEWL) (Gallus gallus, UniProt P00698).
T1 construct: gene LYZ
Put plainly: tryptophan fluorescence quenching. It is filed as binding. Particulars: 10 mM tris-HCl pH 7.5, room temperature; 10 µM HEWL, excitation 295 nm; double-log; fitted together with number of bound quencher molecules n. From the text: tryptophan fluorescence quenching on hen egg white lysozyme (HEWL)

T1 sequence (P00698 19-147): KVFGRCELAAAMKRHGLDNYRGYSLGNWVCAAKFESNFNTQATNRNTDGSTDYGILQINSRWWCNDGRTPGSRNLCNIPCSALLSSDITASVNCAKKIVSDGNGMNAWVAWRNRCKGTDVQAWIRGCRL

Turning to α2WD, the “Ka” value came to 6.91e+08 M⁻¹. The result for Cu^IIWD reads 6.76e+08 M⁻¹.
